Where two headings read alike, the source gives them in different places. Marks after values point to notes of the source that are not given here.
Columns and labels:
[1] = system: hollow fiber-encapsulated M. tuberculosis H37Rv-lux
[2] = cited from earlier work
[3] = Serum antibiotic concentrations in mice on medicated diet; conditions: for Cmean: serum; for AUC: SKH1, mouse, in vivo

| SMILES | activity against bacilli in the hollow fiber model in vivo [1] | AUC ([2]; Isoniazid, Humans (5 mg/kg), rapid acetylators) | AUC ([2]; human, in vivo, 5 mg/kg) | Cmean ([3]; Isoniazid, SKH1 mice (0.02% diet)) [mg/L] | AUC ([3]; 0.02 % of diet) [ng·h/mL] | kill of hollow fiber-encapsulated bacilli ([1]; in vivo) [log] | AUC ([2]; human, in vivo, 10 mg/kg) [mg·h/L] | Cmax ([2]; human, in vivo, 10 mg/kg) [ng/mL] | Cmean ([3]; Rifampin, SKH1 mice (0.05% diet)) [mg/L] | AUC ([3]; 0.05 % of diet) [ng·h/mL] |
| --- | --- | --- | --- | --- | --- | --- | --- | --- | --- | --- |
| NNC(=O)c1ccncc1 [Isoniazid, isoniazid] | somewhat effective | 19.9 ± 6.1^a mg h/L | 48.2 ± 1.5^b mg h/L | 0.77 ± 0.21 | 18500 ± 5000 |  |  |  |  |  |
| CO[C@H]1/C=C/O[C@@]2(C)Oc3c(C)c(O)c4c(O)c(c(/C=N/N5CCN(C)CC5)c(O)c4c3C2=O)NC(=O)/C(C)=C\C=C\[C@H](C)[C@H](O)[C@@H](C)[C@@H](O)[C@@H](C)[C@H](OC(C)=O)[C@@H]1C [Rifampin, rifampin] | magnitude of its effect greater than that of isoniazid |  |  |  |  | 3 | 117.93 | 14910 | 3.09 ± 0.41 | 74200 ± 9800 |

Source: patent US20060182685A1, “Hollow fiber technique for in vivo study of cell populations” (priority 2004, published 2006)
